The test deals with T1, human recombinant P2X7 receptors (Homo sapiens, UniProt Q99572).
T1 construct: expressed in transfected cells
T1 sequence (Q99572 1-595): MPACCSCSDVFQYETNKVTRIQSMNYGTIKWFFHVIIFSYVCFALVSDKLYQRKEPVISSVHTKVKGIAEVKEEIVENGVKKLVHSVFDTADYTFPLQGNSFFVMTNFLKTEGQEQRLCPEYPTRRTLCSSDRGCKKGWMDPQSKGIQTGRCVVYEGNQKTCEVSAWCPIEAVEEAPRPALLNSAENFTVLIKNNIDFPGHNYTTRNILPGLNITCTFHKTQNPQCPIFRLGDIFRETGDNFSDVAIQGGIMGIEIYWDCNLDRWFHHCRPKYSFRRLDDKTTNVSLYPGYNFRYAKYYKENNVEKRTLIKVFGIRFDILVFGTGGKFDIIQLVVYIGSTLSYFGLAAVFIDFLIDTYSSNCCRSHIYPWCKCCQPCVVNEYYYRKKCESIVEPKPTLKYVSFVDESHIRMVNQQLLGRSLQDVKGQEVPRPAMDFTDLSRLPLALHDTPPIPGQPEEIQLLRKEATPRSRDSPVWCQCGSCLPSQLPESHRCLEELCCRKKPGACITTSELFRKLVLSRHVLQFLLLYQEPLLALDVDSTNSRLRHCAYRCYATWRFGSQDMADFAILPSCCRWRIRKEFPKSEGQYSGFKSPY
Kind of test: Ethidium Accumulation Assay 1 (HEK293 cells, ATP-induced ethidium uptake). The settings on record: HEK293 cells expressing human P2X7; 1 mM ATP; sometimes mean of more than one measurement; read-out: Assay 1 (antagonist pIC50 for blocking ATP responses) (converted). The class given is cell-based.

SMILES strings stand for the structures.

For `Cn1cccc1-c1nnc2n1CCN(C(=O)c1ccc(F)cc1Cl)C2` [Example 82, -[(2-chloro-4-fluorophenyl)carbonyl]-3-(1-methyl-1H-pyrrol-2-yl)-5,6,7,8-tetrahydro[1,2,4]triazolo [4,3-a]pyrazine], the IC50 was below 100 nM.

In the case of `Cc1cc(-c2nnc3n2CCN(C(=O)c2ccc(F)cc2Cl)C3)no1` [Example 71, 7-[(2-chloro-4-fluorophenyl)carbonyl]-3-(5-methyl-3-isoxazolyl)-5,6,7,8-tetrahydro[1,2,4]triazolo [4,3-a]pyrazine], the IC50 was below 501 nM.

Consider `Cc1nc(-c2nnc3n2CCN(C(=O)c2ccc(F)cc2Cl)C3)cs1` [Example 136, 7-[(2-chloro-4-fluorophenyl)carbonyl]-3-(2-methyl-1,3-thiazol-4-yl)-5,6,7,8-tetrahydro[1,2,4]triazolo[4,3-a]pyrazine], for which the IC50 is below 501 nM.

In the case of `O=C(c1ccccc1Cl)N1CCn2c(nnc2-c2ncccc2F)C1` [Example 121, 7-[(2-chlorophenyl)carbonyl]-3-(3-fluoro-2-pyridinyl)-5,6,7,8-tetrahydro[1,2,4]triazolo[4,3-a]pyrazine], the IC50 is below 100 nM.

With `O=C(c1ccc(F)cc1Cl)N1CCn2c(nnc2-c2cnc(Cl)cn2)C1` [Example 141, 7-[(2-Chloro-4-fluorophenyl)carbonyl]-3-(5-chloro-2-pyrazinyl)-5,6,7,8-tetrahydro[1,2,4]triazolo[4,3-a]pyrazine], the IC50 was below 501 nM.

With `O=C(c1ccc(F)c(C(F)(F)F)c1)N1CCn2c(nnc2-c2cnccn2)C1` [Example 108, 7-{[4-fluoro-3-(trifluoromethyl)phenyl]carbonyl}-3-(2-pyrazinyl)-5,6,7,8-tetrahydro[1,2,4]triazolo [4,3-a]pyrazine], the IC50 was below 100 nM.

As to `Cc1ccc(-c2nnc3n2CCN(C(=O)c2cccc(C(F)(F)F)c2Cl)C3)nc1` [Example 51, 7-{[2-chloro-3-(trifluoromethyl)phenyl]carbonyl}-3-(5-methyl-2-pyridinyl)-5,6,7,8-tetrahydro[1,2,4]triazolo [4,3-a]pyrazine], the IC50 was below 100 nM.

For `O=C(c1ccc(F)cc1Cl)N1CCn2c(nnc2-c2cccc(F)c2F)C1` [Example 131, 7-[(2-chloro-4-fluorophenyl)carbonyl]-3-(2,3-difluorophenyl)-5,6,7,8-tetrahydro[1,2,4]triazolo[4,3-a]pyrazine], the IC50 is below 100 nM.

Take `O=C(c1cccc(C(F)(F)F)c1Cl)N1CCn2c(nnc2C2CCCC2)C1` [Example 139, 7-{[2-chloro-3-(trifluoromethyl)phenyl]carbonyl}-3-cyclopentyl-5,6,7,8-tetrahydro[1,2,4]triazolo[4,3-a]pyrazine]: the IC50 was below 100 nM.

With `COc1nnc2n1CCN(C(=O)c1cccc(C(F)(F)F)c1Cl)C2` [Example 17, 7-{[2-Chloro-3-(trifluoromethyl)phenyl]carbonyl}-3-(methyloxy)-5,6,7,8-tetrahydro[1,2,4]triazolo[4,3-a]pyrazine], the IC50 is below 100 nM.

Regarding `Cc1ncccc1-c1nnc2n1CCN(C(=O)c1cccc(C(F)(F)F)c1Cl)C2` [Example 65, 7-{[2-chloro-3-(trifluoromethyl)phenyl]carbonyl}-3-(2-methyl-3-pyridinyl)-5,6,7,8-tetrahydro[1,2,4]triazolo [4,3-a]pyrazine], the IC50 was below 100 nM.

Consider `O=C(c1ccc(Cl)cc1Cl)N1CCn2c(nnc2-c2cscn2)C1` [Example 97, 7-[(2,4-dichlorophenyl)carbonyl]-3-(1,3-thiazol-4-yl)-5,6,7,8-tetrahydro[1,2,4]triazolo [4,3-a]pyrazine], for which the IC50 was below 10 nM.

Take `Cc1cccnc1-c1nnc2n1CCN(C(=O)c1cccc(Cl)c1Cl)C2` [Example 66, 7-[(2,3-dichlorophenyl)carbonyl]-3-(3-methyl-2-pyridinyl)-5,6,7,8-tetrahydro[1,2,4]triazolo [4,3-a]pyrazine]: the IC50 was below 100 nM.

For the origin of these results see patent publication US8501946B2 (Glaxo Group Limited, priority 2009, dated 2013).
